Assay results: US11162944B2, “Compositions and methods” (priority 2015, dated 2021)
Marks after values point to notes of the source that are not given here.

Tests used:
[1] = system: biomarker (antibody) in serum from patients with suspected TB (tuberculosis); assay: ELISA of 64 serum samples on three synthetic antigens (Example 6); assay type: binding, human; details: dilution 1 in 80
Procedure: ELISA assays were carried out as known to those practiced in the art using 96 well plates. In the first procedure, the ELISA assay was carried out on 96-well microplates and the purified antigens were dissolved in n-hexane at a concentration of 62.5 μg/mL. The antigen solution was diluted and 50 μL was placed in each well. The plates were left to dry at room temperature overnight. Blocking was done with 0.5% casein/PBS (400 μL/well) and the plates were left to incubate at 25° C. for 1 h. The casein was aspirated using the LT-3500 plate washer and the plates flicked dry. Then the serum (1:20 dilution in 0.5% casein/PBS, pH 7.4) was added to the plate (50 μL/well) and left to incubate at 25° C. for 1 h. The serum was aspirated and washed three times with (casein/PBS, 400 μL/well) using the same plate washer and the plates were flicked dry again. After that, the secondary antibody, in the example given IgG Fc (1:1000 dilution in 0.5% casein/PBS) was added to the plate (50 μL/well) and the plates were left to incubate at 25° C. for 30 min. The plates were washed three times again with casein/PBS (400 μL/well) and dried. Then, the OPD substrate was added to the plates, which were left to incubate at 25° C. for 30 min. Finally, 2.5 M H2SO4 (50 μL/well) was added and the absorbances of each well were read at 492, 450 and 630 nm using an LT-4000 plate reader.
Human serum used in this work was from the WHO sample bank. In this case, all the patients had presented at a hospital with the symptoms of TB. Clinical diagnosis was made on the basis of a series of standard assays.
All measurements were taken as four replicates unless otherwise stated. These were averaged to provide the data in the tables which are for the value at 492 nm.
A set of 64 samples of serum from patients attending a clinic with suspected TB (tuberculosis) in a high burden TB population was examined using ELISA. Samples 1-9 had been diagnosed as positive for infection with tuberculosis (TB+) on the basis of a range of assays including sputum smear and culture, and samples 10-64 as negative for infection with tuberculosis (TB−). An ELISA assay was carried out with three synthetic antigens having the structures:
Cut-off values were set to identify all the positive samples with all three antigens, and the false positives were then identified in Table 3. […] 53 of the 55 negatives were correctly identified giving a specificity of 96%. The shaded results denote a result which is above the cut-off set for that particular antigen assay.

wild-type BMDCs = assay: IL-6 secretion by bone marrow-derived dendritic cells, cytokine-specific ELISA; assay type: cell-based, mice; details: antigens at 100 μg/ml coated on plate, ISO as solvent, FIG. 1
Procedure: The concentrations of cytokines in the cell-free medium from stimulation of bone marrow-derived dendritic cells were determined using standard cytokine-specific ELISA. BMDCs were generated from mice, by flushing out the femurs of mice into complete medium and pipetting vigorously to make a single-cell suspension. The glycolipids were coated to the bottom of 96 micro-well plates (100 μg/ml). BMDCs were added, and after 6 or 48 hours of incubation the supernatants were harvested.
The first experiment was the IL-6 secretion by wild-type BMDCs from mice using compounds B, D, C and H (shown below) as antigens at 100 μg/ml, and isopropyl alcohol (ISO) as a solvent. Commercial trehalose-6,6-dimycolate (TDM), lipopolysaccharides (LPS), and trehalose-6,6-dibehenate (TDB) were used as a controls.

CCCCCCCCCCCCCCCCCCCCCCCC[C@@H](C(=O)OC[C@H]1O[C@H](OC)[C@@H](O)[C@@H]1O)[C@H](O)CCCCCCCCCCCC1CC1CCCCCCCCCCCCCC[C@H]1C[C@H]1CCCCCCCCCCCCCCCCCCCC (some centres unmarked) [Antigen 3]
ELISA absorbance at 492 nm ([1]; sample 1 (TB+)): 0.74* | ELISA absorbance at 492 nm ([1]; sample 2 (TB+)): 0.76* | ELISA absorbance at 492 nm ([1]; sample 3 (TB+)): 0.99* | ELISA absorbance at 492 nm ([1]; sample 4 (TB+)): 0.97* | ELISA absorbance at 492 nm ([1]; sample 5 (TB+)): 0.99* | ELISA absorbance at 492 nm ([1]; sample 6 (TB+)): 1.39* | ELISA absorbance at 492 nm ([1]; sample 7 (TB+)): 1.97* | ELISA absorbance at 492 nm ([1]; sample 8 (TB+)): 1.67* | ELISA absorbance at 492 nm ([1]; sample 9 (TB+)): 1.09* | ELISA absorbance at 492 nm ([1]; sample 10 (TB−)): 0.59 | ELISA absorbance at 492 nm ([1]; sample 11 (TB−)): 0.92* | ELISA absorbance at 492 nm ([1]; sample 12 (TB−)): 0.84* | ELISA absorbance at 492 nm ([1]; sample 13 (TB−)): 0.60 | ELISA absorbance at 492 nm ([1]; sample 14 (TB−)): 1.30* | ELISA absorbance at 492 nm ([1]; sample 15 (TB−)): 0.64 | ELISA absorbance at 492 nm ([1]; sample 16 (TB−)): 0.56 | ELISA absorbance at 492 nm ([1]; sample 17 (TB−)): 0.81* | ELISA absorbance at 492 nm ([1]; sample 18 (TB−)): 0.68 | ELISA absorbance at 492 nm ([1]; sample 19 (TB−)): 0.71* | ELISA absorbance at 492 nm ([1]; sample 20 (TB−)): 1.03* | ELISA absorbance at 492 nm ([1]; sample 21 (TB−)): 0.61 | ELISA absorbance at 492 nm ([1]; sample 22 (TB−)): 0.66 | ELISA absorbance at 492 nm ([1]; sample 23 (TB−)): 0.81* | ELISA absorbance at 492 nm ([1]; sample 24 (TB−)): 0.62 | ELISA absorbance at 492 nm ([1]; sample 25 (TB−)): 0.21 | ELISA absorbance at 492 nm ([1]; sample 26 (TB−)): 0.72* | ELISA absorbance at 492 nm ([1]; sample 27 (TB−)): 0.61 | ELISA absorbance at 492 nm ([1]; sample 28 (TB−)): 0.38 | ELISA absorbance at 492 nm ([1]; sample 29 (TB−)): 0.41 | ELISA absorbance at 492 nm ([1]; sample 30 (TB−)): 0.39 | ELISA absorbance at 492 nm ([1]; sample 31 (TB−)): 0.51 | ELISA absorbance at 492 nm ([1]; sample 32 (TB−)): 0.91* | ELISA absorbance at 492 nm ([1]; sample 33 (TB−)): 0.42 | ELISA absorbance at 492 nm ([1]; sample 34 (TB−)): 0.49 | ELISA absorbance at 492 nm ([1]; sample 35 (TB−)): 0.38 | ELISA absorbance at 492 nm ([1]; sample 36 (TB−)): 0.28 | ELISA absorbance at 492 nm ([1]; sample 37 (TB−)): 0.55 | ELISA absorbance at 492 nm ([1]; sample 38 (TB−)): 0.52 | ELISA absorbance at 492 nm ([1]; sample 39 (TB−)): 0.35 | ELISA absorbance at 492 nm ([1]; sample 40 (TB−)): 0.35 | ELISA absorbance at 492 nm ([1]; sample 41 (TB−)): 0.66 | ELISA absorbance at 492 nm ([1]; sample 42 (TB−)): 0.55 | ELISA absorbance at 492 nm ([1]; sample 43 (TB−)): 0.30 | ELISA absorbance at 492 nm ([1]; sample 44 (TB−)): 0.98* | ELISA absorbance at 492 nm ([1]; sample 45 (TB−)): 0.43 | ELISA absorbance at 492 nm ([1]; sample 46 (TB−)): 0.31 | ELISA absorbance at 492 nm ([1]; sample 47 (TB−)): 0.56 | ELISA absorbance at 492 nm ([1]; sample 48 (TB−)): 0.32 | ELISA absorbance at 492 nm ([1]; sample 49 (TB−)): 0.51 | ELISA absorbance at 492 nm ([1]; sample 50 (TB−)): 0.37 | ELISA absorbance at 492 nm ([1]; sample 51 (TB−)): 0.21 | ELISA absorbance at 492 nm ([1]; sample 52 (TB−)): 0.36 | ELISA absorbance at 492 nm ([1]; sample 53 (TB−)): 0.26 | ELISA absorbance at 492 nm ([1]; sample 54 (TB−)): 0.27 | ELISA absorbance at 492 nm ([1]; sample 55 (TB−)): 0.27 | ELISA absorbance at 492 nm ([1]; sample 56 (TB−)): 0.73* | ELISA absorbance at 492 nm ([1]; sample 57 (TB−)): 0.37 | ELISA absorbance at 492 nm ([1]; sample 58 (TB−)): 0.41 | ELISA absorbance at 492 nm ([1]; sample 59 (TB−)): 0.45 | ELISA absorbance at 492 nm ([1]; sample 60 (TB−)): 0.44 | ELISA absorbance at 492 nm ([1]; sample 61 (TB−)): 0.41 | ELISA absorbance at 492 nm ([1]; sample 62 (TB−)): 0.30 | ELISA absorbance at 492 nm ([1]; sample 63 (TB−)): 0.25 | ELISA absorbance at 492 nm ([1]; sample 64 (TB−)): 0.29

CCCCCCCCCCCCCCCCCCCCCCCCC(C(=O)OCC1OC(OCC2OC(OC)C(O)C2OC2OC(COC(=O)C(CCCCCCCCCCCCCCCCCCCCCCCC)C(O)CCCCCCCCCCCC3CC3CCCCCCCCCCCCCCC3CC3CCCCCCCCCCCCCCCCCCCC)C(O)C2O)C(O)C1O)C(O)CCCCCCCCCCCC1CC1CCCCCCCCCCCCCCC1CC1CCCCCCCCCCCCCCCCCCCC (centres unmarked) [H]
IL-6 secretion by wild-type BMDCs (wild-type BMDCs): good level of stimulation
